In PubChem BioAssay AID2060902 (Molecular Pharmacology Branch, DTP, NCI, 2025):

Test system: 485368-065-R3-J5-PDC spheroids with HUVEC/MSC, viability
Assay: Anticancer human tumor 485368-065-R3-J5-PDC patient-derived pancreatic carcinoma cell line growth inhibition [RAS]
Conditions: for IC50: curve of first compound; for viability, T/C: stronger effect = lower value
In short: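 Multi-cell-type spheroids: tumor cells plus HUVEC endothelial cells and mesenchymal stem cells. RAS-pathway inhibitors were combined with targeted agents, each dosed in half-log steps down from clinical Cmax, or from 10 microM when Cmax was unknown.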

[1] = second compound 0.00316 µM, first compound 0.000949 µM
[2] = second compound 0.00316 µM, first compound 0.003 µM
[3] = second compound 0.00316 µM, first compound 0.00949 µM
[4] = second compound 0.00316 µM, first compound 0.03 µM
[5] = second compound 0.00316 µM, first compound 0.0949 µM
[6] = second compound 0.00316 µM, first compound 0.3 µM
[7] = second compound 0.01 µM, first compound 0.000949 µM
[8] = second compound 0.01 µM, first compound 0.003 µM
[9] = second compound 0.01 µM, first compound 0.00949 µM
[10] = second compound 0.01 µM, first compound 0.03 µM
[11] = second compound 0.01 µM, first compound 0.0949 µM
[12] = second compound 0.01 µM, first compound 0.3 µM
[13] = second compound 0.0316 µM, first compound 0.000949 µM
[14] = second compound 0.0316 µM, first compound 0.003 µM
[15] = second compound 0.0316 µM, first compound 0.00949 µM
[16] = second compound 0.0316 µM, first compound 0.03 µM
[17] = second compound 0.0316 µM, first compound 0.0949 µM
[18] = second compound 0.0316 µM, first compound 0.3 µM
[19] = second compound 0.1 µM, first compound 0.000949 µM
[20] = second compound 0.1 µM, first compound 0.003 µM
[21] = second compound 0.1 µM, first compound 0.00949 µM
[22] = second compound 0.1 µM, first compound 0.03 µM
[23] = second compound 0.1 µM, first compound 0.0949 µM
[24] = second compound 0.1 µM, first compound 0.3 µM
[25] = second compound 0.316 µM, first compound 0.000949 µM
[26] = second compound 0.316 µM, first compound 0.003 µM
[27] = second compound 0.316 µM, first compound 0.00949 µM
[28] = second compound 0.316 µM, first compound 0.03 µM
[29] = second compound 0.316 µM, first compound 0.0949 µM
[30] = second compound 0.316 µM, first compound 0.3 µM
[31] = second compound 1 µM, first compound 0.000949 µM
[32] = second compound 1 µM, first compound 0.003 µM
[33] = second compound 1 µM, first compound 0.00949 µM
[34] = second compound 1 µM, first compound 0.03 µM
[35] = second compound 1 µM, first compound 0.0949 µM
[36] = second compound 1 µM, first compound 0.3 µM
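Further: spheroids exposed to agents for seven days before readout.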

SMILES: CC1(C)CCC(Nc2ncc(C(F)(F)F)c(-c3c[nH]c4c(P(C)(C)=O)c(C#N)ccc34)n2)CN1 (centres undefined) + C=CC(=O)N1CCN(c2nc(OCC3CCCN3C)nc3c(F)c(-c4nc(N)cc(C)c4C(F)(F)F)c(Cl)cc23)C(C)C1
- IC50 (second compound 0.00316 µM): 2.36 nM
- IC50 (second compound 0.01 µM): 2.61 nM
- IC50 (second compound 0.0316 µM): 3.73 nM
- IC50 (second compound 0.1 µM): 3.95 nM
- IC50 (second compound 0.316 µM): 2.89 nM
- IC50 (second compound 1 µM): 4.02 nM
- viability, T/C [1]: 92.5%
- viability, T/C [2]: 39.1%
- viability, T/C [3]: 26.9%
- viability, T/C [4]: 26.3%
- viability, T/C [5]: 30.9%
- viability, T/C [6]: 27.9%
- viability, T/C [7]: 87.5%
- viability, T/C [8]: 44.9%
- viability, T/C [9]: 26.5%
- viability, T/C [10]: 28.2%
- viability, T/C [11]: 28.2%
- viability, T/C [12]: 29.1%
- viability, T/C [13]: 73.6%
- viability, T/C [14]: 54%
- viability, T/C [15]: 32.8%
- viability, T/C [16]: 30.6%
- viability, T/C [17]: 30.8%
- viability, T/C [18]: 28.2%
- viability, T/C [19]: 83.5%
- viability, T/C [20]: 55.5%
- viability, T/C [21]: 32.3%
- viability, T/C [22]: 30.9%
- viability, T/C [23]: 30.5%
- viability, T/C [24]: 34.3%
- viability, T/C [25]: 100%
- viability, T/C [26]: 48.4%
- viability, T/C [27]: 32.6%
- viability, T/C [28]: 28.4%
- viability, T/C [29]: 30.6%
- viability, T/C [30]: 27.4%
- viability, T/C [31]: 87.1%
- viability, T/C [32]: 55.1%
- viability, T/C [33]: 35.8%
- viability, T/C [34]: 25.6%
- viability, T/C [35]: 32.1%
- viability, T/C [36]: 34.2%

SMILES: CCc1c2c(nc3ccc(O)cc13)-c1cc3c(c(=O)n1C2)COC(=O)[C@]3(O)CC + C=CC(=O)N1CCN(c2nc(OCC3CCCN3C)nc3c(F)c(-c4nc(N)cc(C)c4C(F)(F)F)c(Cl)cc23)C(C)C1
- IC50 (second compound 0.00316 µM): 1.96 nM
- IC50 (second compound 0.01 µM): 2.09 nM
- IC50 (second compound 0.0316 µM): 2.15 nM
- IC50 (second compound 0.1 µM): 2.06 nM
- IC50 (second compound 0.316 µM): 2.08 nM
- IC50 (second compound 1 µM): 1.76 nM
- viability, T/C [1]: 87.9%
- viability, T/C [2]: 25.8%
- viability, T/C [3]: 15.8%
- viability, T/C [4]: 6.75%
- viability, T/C [5]: 4.49%
- viability, T/C [6]: 3.28%
- viability, T/C [7]: 90.6%
- viability, T/C [8]: 28.9%
- viability, T/C [9]: 17.6%
- viability, T/C [10]: 7.17%
- viability, T/C [11]: 3.98%
- viability, T/C [12]: 3.67%
- viability, T/C [13]: 89.7%
- viability, T/C [14]: 33.6%
- viability, T/C [15]: 13%
- viability, T/C [16]: 6.26%
- viability, T/C [17]: 4.82%
- viability, T/C [18]: 3.26%
- viability, T/C [19]: 85.4%
- viability, T/C [20]: 32.5%
- viability, T/C [21]: 12.2%
- viability, T/C [22]: 6.25%
- viability, T/C [23]: 4.43%
- viability, T/C [24]: 3.35%
- viability, T/C [25]: 81.7%
- viability, T/C [26]: 34.7%
- viability, T/C [27]: 15.1%
- viability, T/C [28]: 5.63%
- viability, T/C [29]: 4.4%
- viability, T/C [30]: 3.28%
- viability, T/C [31]: 74.6%
- viability, T/C [32]: 26.8%
- viability, T/C [33]: 16.5%
- viability, T/C [34]: 5.78%
- viability, T/C [35]: 5.14%
- viability, T/C [36]: 3.4%
